Measured values from BigSolDB 2.1.

With `N#Cc1ccncc1` the solubility (mole fraction) (in acetone, 278.15 K) was 0.162, the solubility (mole fraction) (in acetone, 283.15 K) was 0.186 and the solubility (mole fraction) (in acetone, 288.15 K) was 0.217. It also gave a solubility (mole fraction) (in acetone, 293.15 K) of 0.246, a solubility (mole fraction) (in acetone, 298.15 K) of 0.281 and a solubility (mole fraction) (in acetone, 303.15 K) of 0.318. The solubility (mole fraction) (in acetone, 308.15 K) was 0.351, the solubility (mole fraction) (in acetone, 313.15 K) was 0.398 and the solubility (mole fraction) (in acetone, 318.15 K) was 0.444. It also gave a solubility (mole fraction) (in ethanol, 278.15 K) of 0.0165, a solubility (mole fraction) (in ethanol, 283.15 K) of 0.0242 and a solubility (mole fraction) (in ethanol, 288.15 K) of 0.035. It also gave a solubility (mole fraction) (in ethanol, 293.15 K) of 0.0506, a solubility (mole fraction) (in ethanol, 298.15 K) of 0.073 and a solubility (mole fraction) (in ethanol, 303.15 K) of 0.101. It also gave a solubility (mole fraction) (in ethanol, 308.15 K) of 0.142, a solubility (mole fraction) (in ethanol, 313.15 K) of 0.19 and a solubility (mole fraction) (in ethanol, 318.15 K) of 0.261. It also gave a solubility (mole fraction) (in methanol, 278.15 K) of 0.0384, a solubility (mole fraction) (in methanol, 283.15 K) of 0.0504 and a solubility (mole fraction) (in methanol, 288.15 K) of 0.0656. It also gave a solubility (mole fraction) (in methanol, 293.15 K) of 0.0854, a solubility (mole fraction) (in methanol, 298.15 K) of 0.108 and a solubility (mole fraction) (in methanol, 303.15 K) of 0.139. For the same compound, the solubility (mole fraction) (in methanol, 308.15 K) was 0.179, the solubility (mole fraction) (in methanol, 313.15 K) was 0.225 and the solubility (mole fraction) (in methanol, 318.15 K) was 0.283. It also gave a solubility (mole fraction) (in n-propanol, 278.15 K) of 0.042, a solubility (mole fraction) (in n-propanol, 283.15 K) of 0.0556 and a solubility (mole fraction) (in n-propanol, 288.15 K) of 0.0718. The solubility (mole fraction) (in n-propanol, 293.15 K) was 0.0926, the solubility (mole fraction) (in n-propanol, 298.15 K) was 0.118 and the solubility (mole fraction) (in n-propanol, 303.15 K) was 0.147. It also gave a solubility (mole fraction) (in n-propanol, 308.15 K) of 0.184, a solubility (mole fraction) (in n-propanol, 313.15 K) of 0.237 and a solubility (mole fraction) (in n-propanol, 318.15 K) of 0.303. For the same compound, the solubility (mole fraction) (in water, 278.15 K) was 0.00264, the solubility (mole fraction) (in water, 283.15 K) was 0.00327 and the solubility (mole fraction) (in water, 288.15 K) was 0.004. It also gave a solubility (mole fraction) (in water, 293.15 K) of 0.00494, a solubility (mole fraction) (in water, 298.15 K) of 0.00603 and a solubility (mole fraction) (in water, 303.15 K) of 0.00727. The solubility (mole fraction) (in water, 308.15 K) was 0.00875, the solubility (mole fraction) (in water, 313.15 K) was 0.0104 and the solubility (mole fraction) (in water, 318.15 K) was 0.0123.
